US20220359084A1, “Methods of Treatments Based Upon Molecular Characterization of Breast Cancer” (The Board of Trustees of the Leland Stanford Junior …, priority 2019, published 2022)

Legend:
[1] = system: patients with metastatic ER-positive breast cancer; assay: Progression free survival by molecular subgroup in a prospective cohort of 812 patients; format: in vivo, human; conditions: for progression free survival after endocrine therapy, high-risk vs lower risk integrative cluster groups: endocrine therapy (fulvestrant or tamoxifen), pooled, groups averaged together, FIG. 47, adj. P=0.0075
Excerpt: The ability of chemotherapy, targeted therapies, and endocrine therapies on patients within particular molecular subgroups was examined in a prospective cohort of 812 patients with metastatic ER-positive breast cancer. Provided in FIG. […]

[2] = system: PDOs derived from the 19006 patient; assay: Patient derived organoid (PDO) viability, AlamarBlue, patient 19006; format: cell-based; conditions: Homo sapiens, 192 h, ER-positive PDOs categorized into IntClust4, 19006 patient (FIGS. 52A and 52B), 8 days treatment, 'on the order of', units given within the value
Description: FIGS. 52A and 52B provide viability curves of patient derived organoids derived from patient 19006, generated in accordance with various embodiments of the invention.
(§1) To assess breast cancer PDOs, the organoids were digested into single cells with TrypLE (Gibco). Cells are strained with a 100 μm filter then seeded as 10,000 cells per well with 10 μl […] (BME) (Cultrex) in a black, clear bottom 96-well plate and covered with 100 μl breast organoid media. Cells are grown for 4 days to form small spheroids. Cells were treated with 6 concentrations of different targeted Therapies (including but not limited to capivasertib, ipatasertib, PF4706871, M2698, alpelisib), as well as negative control (DMSO) and positive control (Triton X-100) in duplicate for 8 days, with drug media refreshed on day 5. On day 8, the plates are manually checked under the microscope to ensure the positive control drug(s) had effectively killed organoids, and that organoids present in the negative control wells were healthy. Cell viability is assessed using AlamarBlue (Thermofisher) by adding the dye to the media in final concentration of 1:10, followed by incubation for 4 hours at 37° C., and […] measurement using a microplate reader (Molecular Devices). IC50 values are computed using R package drc. Averages of IC50s from two to three independent experiments were calculated and visualized using R.
Likewise, capivasertib, ipatasertib, and M22698, but not alpelisib and PF4706871, each provide IC50 on the order of 100 nM to 10 μM for PDOs derived from the 19006 patient (FIGS. 53A and 53B).

[3] = system: patient derived organoids derived from patient 19004; assay: Patient derived organoid (PDO) viability, AlamarBlue, FIGS. 53A and 53B; format: cell-based; conditions: Homo sapiens, 192 h, ER-positive PDOs categorized into IntClust4, text says 19006 patient (FIGS. 53A and 53B), 8 days treatment, 'on the order of', units given within the value
Description: FIGS. 53A and 53B provide viability curves of patient derived organoids derived from patient 19004, generated in accordance with various embodiments of the invention.
as §1, with “IC50 values are computed using R package drc.” left out, “R. […]” for “R.”

[4] = general statement, no test described; cited from earlier work

CC/C(=C(\c1ccccc1)c1ccc(OCCN(C)C)cc1)c1ccccc1 [tamoxifen]
progression free survival after endocrine therapy, high-risk vs lower risk integrative cluster groups [1]: lower risk groups have higher probability of progression free survival than high-risk groups

Cc1nc(NC(=O)N2CCC[C@H]2C(N)=O)sc1-c1ccnc(C(C)(C)C(F)(F)F)c1 [alpelisib]
IC50 [2]: 0.1 to 10 µM

NC(=O)c1cccc2c(N[C@H](CN3CCC3)c3ccc(Cl)c(C(F)(F)F)c3)ncnc12 [M22698]
IC50 [3]: 0.1 to 10 µM | IC50 [2]: 0.1 to 10 µM

CC(C)NC[C@@H](C(=O)N1CCN(c2ncnc3c2[C@H](C)C[C@H]3O)CC1)c1ccc(Cl)cc1 [ipatasertib]
IC50 [3]: 0.1 to 10 µM | IC50 [2]: 0.1 to 10 µM

C[C@]12CC[C@@H]3c4ccc(O)cc4C[C@@H](CCCCCCCCC[S+]([O-])CCCC(F)(F)C(F)(F)F)[C@H]3[C@@H]1CC[C@@H]2O (stereo partly drawn) [fulvestrant]
oral availability [4]: low | progression free survival probability, aromatase inhibitor vs fulvestrant treatment ([1]; IntClust1, IntClust2 and IntClust6 patients (averaged together), FIG. 48, adj. P value=0.004): patients receiving an aromatase inhibitor had greater survival probability than patients receiving fulvestrant | progression free survival probability, fulvestrant vs aromatase inhibitor treatment ([1]; IntClust9 patients, FIG. 49, adj. P value=0.361): slightly, yet insignificantly, greater survival probability | progression free survival after endocrine therapy, high-risk vs lower risk integrative cluster groups [1]: lower risk groups have higher probability of progression free survival than high-risk groups

CO[C@H]1C[C@@H]2CC[C@@H](C)[C@@](O)(O2)C(=O)C(=O)N2CCCC[C@H]2C(=O)O[C@H]([C@H](C)C[C@@H]2CC[C@@H](OCCO)[C@H](OC)C2)CC(=O)[C@H](C)/C=C(\C)[C@@H](O)[C@@H](OC)C(=O)[C@H](C)C[C@H](C)/C=C/C=C/C=C/1C [everolimus]
progression free survival probability, with vs without mTOR antagonist treatment ([1]; IntClust1 patients, FIG. 45, adj. P value=0.023): profoundly greater survival probability

CN(C)C(=O)c1cc2cnc(Nc3ccc(N4CCNCC4)cn3)nc2n1C1CCCC1 [ribociclib]
progression free survival probability, with vs without CDK4/6 antagonist treatment ([1]; IntClust2 patients, pooled CDK4/6 inhibitor group, FIG. 46, adj. P value=0.016): profoundly greater survival probability
